From patent US20100278835A1, “NOVEL COMPOUNDS 660” (ASTRAZENECA UK LIMITED, priority 2009, published 2010) come the findings set out here.

≈ marks a conversion by molar mass, not a printed value. Bounds are passed on as bounds.

The first data set concerns RSV RSS strain. In words: ELISA assay of antiviral activity against RSV (reduction in RSV protein expression). It counts as cell-based. Conditions: Hep-2 cells infected with RSV RSS strain, multiplicity of infection 0.02, 3 days; concentration required to inhibit RSV protein expression by 50%. The method, then: The antiviral activity of these compounds against RSV was determined in an ELISA assay. […] ELISA assays were set up by seeding 96-well plates with 5×10^3 Hep-2 cells per well in 100 μl DMEM containing 10% FBS for 24 h. Compound dilutions were prepared in 0.5% DMSO and 50 μl/well was added to the assay plates, the plates were incubated at 37° C. in 5% CO2 for one hour. Cells were infected with 50 μl/well RSV RSS strain at a multiplicity of infection of 0.02 and were incubated at 37° C. in 5% CO2 for 3 days. Cells were then fixed and permeabilised with 75%/25% methanol acetone and blocked with 2% Marvel™, 0.05% Tween for one hour. Plates were then incubated in the presence of a 1:4000 dilution of […] polyclonal antibody (Millipore, AB1128) followed by a 1:1000 dilution of rabbit anti-goat, horseradish peroxidase (DAKO, PO449) labelled secondary antibody. The plates were developed with O-phenylenediamine in the presence of hydrogen peroxide. The antiviral activity of the compounds is presented as an IC50, the concentration required to inhibit RSV protein expression by 50%.
(In an ELISA, binding on a coated surface is turned into a signal by an enzyme label.)
What is called IC50 is the concentration at which inhibition is half-maximal. Lower therefore signals higher potency. `CC(C)CCN1Cc2ccccc2N(Cc2nc3cc(CN)ccc3n2CCC(C)C)C1=O` [Example 14, 1-[[5-(aminomethyl)-1-isopentyl-benzimidazol-2-yl]methyl]-3-isopentyl-4H-quinazolin-2-one] returned an IC50 of 2.1 nM.
Still for that read-out and setting: the value for “1-[[5-(aminomethyl)-1-(4-hydroxybutyl)benzimidazol-2-yl]methyl]-3-cyclopropyl-4H-quinazolin-2-one [Example 25]” was 1.5 nM.
The same measure, in the same setting: the value for “1-[[5-(aminomethyl)-1-isopentyl-benzimidazol-2-yl]methyl]-3-cyclopropyl-4,4-dimethyl-quinazolin-2-one [Example 21]” was 57 nM.
Same read-out and setting: under “1-[[5-[(3-aminopropylamino)methyl]-1-isopentyl-benzimidazol-2-yl]methyl]-3-(2-methoxyethyl)-4H-quinazolin-2-one [Example 33]” stands 243 nM.
“1-[[5-(aminomethyl)-1-(4-hydroxybutyl)benzimidazol-2-yl]methyl]-3-(2-methoxyethyl)-4H-quinazolin-2-one [Example 26]” returned an IC50 of 0.4 nM.
On the same count and under the same terms, the value for `CC(C)CCn1c(CN2C(=O)N(CC3CCCCC3)Cc3ccccc32)nc2cc(CN)ccc21` [Example 19, 1-[[5-(aminomethyl)-1-isopentyl-benzimidazol-2-yl]methyl]-3-(cyclohexylmethyl)-4H-quinazolin-2-one] was 2890 nM.

Staying with this data set, now noted: human respiratory syncytial virus, 72 h; Hep-2 cells infected with RSV RSS strain, multiplicity of infection 0.02, 3 days; concentration required to inhibit RSV protein expression by 50%.
`CC(C)CCn1c(CN2C(=O)N(C3CC3)Cc3ccccc32)nc2cc(CN)ccc21` [Example 7, 1-[[5-(Aminomethyl)-1-isopentyl-benzimidazol-2-yl]methyl]-3-cyclopropyl-4H-quinazolin-2-one] returned an IC50 of 1.7 nM.
The same measure, in the same setting: under `CC(C)CCn1c(CN2C(=O)N(C3CC3)Cc3ccccc32)nc2cc(C(=N)N)ccc21` [Example 35, 2-[(3-cyclopropyl-2-oxo-4H-quinazolin-1-yl)methyl]-1-isopentyl-benzimidazole-5-carboxamidine] stands 3.2 nM.
Same read-out and setting: under `CC(C)CCn1c(CN2C(=O)N(C)Cc3ccccc32)nc2cc(CN)ccc21` [Example 5, 1-[[5-(aminomethyl)-1-isopentyl-benzimidazol-2-yl]methyl]-3-methyl-4H-quinazolin-2-one] stands 8.9 nM.
The same measure, in the same setting: under `CC(C)CCn1c(CN2C(=O)N(C3CC3)C(C)c3ccccc32)nc2cc(CN)ccc21` (centres unmarked) [Example 20, 1-[[5-(aminomethyl)-1-isopentyl-benzimidazol-2-yl]methyl]-3-cyclopropyl-4-methyl-4H-quinazolin-2-one] stands 9.4 nM; under `CN1Cc2ccccc2N(Cc2nc3cc(CNCCCN)ccc3n2CCCCO)C1=O` [Example 34, 1-[[5-[(3-Aminopropylamino)methyl]-1-(4-hydroxybutyl)benzimidazole-2-yl]methyl]-3-methyl-4H-quinazolin-2-one], 84 nM; under `CC(C)CCn1c(CN2C(=O)N(C3CC3)Cc3c2cccc3C(F)(F)F)nc2cc(CN)ccc21` [Example 22, 1-[[5-(aminomethyl)-1-isopentyl-benzimidazol-2-yl]methyl]-3-cyclopropyl-5-(trifluoromethyl)-4H-quinazolin-2-one], 8.9 nM.
Molecule `CC(C)CCn1c(CN2C(=O)N(C3CC3)C(C)(C)c3ccccc32)nc2cc(/C(N)=N/O)ccc21` [Example 40, 2-[(3-cyclopropyl-4,4-dimethyl-2-oxo-quinazolin-1-yl)methyl]-N′-hydroxy-1-isopentyl-benzimidazole-5-carboxamidine] registered an IC50 of more than 1000 nM.
The same measure, in the same setting: under `CC(C)CCn1c(CN2C(=O)N(C3CC3)C(C)(C)c3ccccc32)nc2cc(C(=N)N)ccc21` [Example 37, 2-[(3-cyclopropyl-4,4-dimethyl-2-oxo-quinazolin-1-yl)methyl]-1-isopentyl-benzimidazole-5-carboxamidine] stands 42 nM; under `COCCN1Cc2ccccc2N(Cc2nc3cc(CN)ccc3n2CCC(C)C)C1=O` [Example 13, 1-[[5-(aminomethyl)-1-isopentyl-benzimidazol-2-yl]methyl]-3-(2-methoxyethyl)-4H-quinazolin-2-one], 101 nM; under `CC1(C)c2ccccc2N(Cc2nc3cc(CN)ccc3n2CCCC(F)(F)F)C(=O)N1C1CC1` [Example 30, 1-[[5-(aminomethyl)-1-(4,4,4-trifluorobutyl)benzimidazol-2-yl]methyl]-3-cyclopropyl-4,4-dimethyl-quinazolin-2-one], 11 nM.
Same read-out and setting: the value for `CC(C)CCn1c(CN2C(=O)N(CC3CC3)Cc3ccccc32)nc2cc(CN)ccc21` [Example 16, 1-[[5-(aminomethyl)-1-isopentyl-benzimidazol-2-yl]methyl]-3-(cyclopropylmethyl)-4H-quinazolin-2-one] was 5.9 nM; that for `CC(C)CCn1c(CN2C(=O)N(CC(C)C)Cc3ccccc32)nc2cc(CN)ccc21` [Example 15, 1-[[5-(aminomethyl)-1-isopentyl-benzimidazol-2-yl]methyl]-3-isobutyl-4H-quinazolin-2-one] was 1.9 nM; that for `CSCCN1Cc2ccccc2N(Cc2nc3cc(CN)ccc3n2CCC(C)C)C1=O` [Example 18, 1-[[5-(aminomethyl)-1-isopentyl-benzimidazol-2-yl]methyl]-3-(2-methylsulfanylethyl)-4H-quinazolin-2-one] was 4 nM.
Same read-out and setting: the value for `CC(C)CCn1c(CN2C(=O)N(C(C)(C)C)Cc3ccccc32)nc2cc(CN)ccc21` [Example 8, 1-[[5-(aminomethyl)-1-isopentyl-benzimidazol-2-yl]methyl]-3-tert-butyl-4H-quinazolin-2-one] was 16.7 nM; that for `CC(C)CCn1c(CN2C(=O)N(C3CCCC3)Cc3ccccc32)nc2cc(CN)ccc21` [Example 9, 1-[[5-(aminomethyl)-1-isopentyl-benzimidazol-2-yl]methyl]-3-cyclopentyl-4H-quinazolin-2-one] was 1.3 nM.
Molecule `CC1(C)c2ccccc2N(Cc2nc3cc(/C(N)=N/O)ccc3n2CCCC(F)(F)F)C(=O)N1C1CC1` [Example 45, 2-[(3-cyclopropyl-4,4-dimethyl-2-oxo-quinazolin-1-yl)methyl]-N′-hydroxy-1-(4,4,4-trifluorobutyl)benzimidazole-5-carboxamidine] registered a half-maximal inhibitory concentration (IC50) of more than 1000 nM.
On the same count and under the same terms, the value for `CC(C)CCN1Cc2ccccc2N(Cc2nc3ccccc3n2CCC(C)C)C1=O` [Example 2, 3-isopentyl-1-[(1-isopentylbenzimidazol-2-yl)methyl]-4H-quinazolin-2-one] was more than 1000 nM; that for `CC(C)CCn1c(CN2C(=O)N(C3CC3)C(C)c3ccccc32)nc2ccccc21` (centres unmarked) [Example 3, 3-cyclopropyl-1-[(1-isopentylbenzimidazol-2-yl)methyl]-4-methyl-4H-quinazolin-2-one] was 1300 nM; that for `CC1c2ccccc2N(Cc2nc3cc(C(N)=NO)ccc3n2CCCC(F)(F)F)C(=O)N1C1CC1` (centres unmarked) [Example 44, 2-[(3-cyclopropyl-4-methyl-2-oxo-4H-quinazolin-1-yl)methyl]-N′-hydroxy-1-(4,4,4-trifluorobutyl)benzimidazole-5-carboxamidine] was 229 nM.
`CC(C)CCn1c(CN2C(=O)N(Cc3ccccc3)Cc3ccccc32)nc2cc(CN)ccc21` [Example 10, 1-[[5-(aminomethyl)-1-isopentyl-benzimidazol-2-yl]methyl]-3-benzyl-4H-quinazolin-2-one] had an IC50 of 15.7 nM.
Same read-out and setting: under `CC(C)CCn1c(CN2C(=O)N(CCc3ccccc3)Cc3ccccc32)nc2cc(CN)ccc21` [Example 11, 1-[[5-(aminomethyl)-1-isopentyl-benzimidazol-2-yl]methyl]-3-phenethyl-4H-quinazolin-2-one] stands 18.8 nM; under `N=C(N)c1ccc2c(c1)nc(CN1C(=O)N(C3CC3)Cc3ccccc31)n2CCCC(F)(F)F` [Example 41, 2-[(3-cyclopropyl-2-oxo-4H-quinazolin-1-yl)methyl]-1-(4,4,4-trifluorobutyl)benzimidazole-5-carboxamidine], 1.6 nM.

System in a further data set: not listed separately
The data set can be described thus: Thermodynamic solubility. It counts as physicochemical. Conditions: aqueous buffer, thermodynamic from solid; 0.1M phosphate buffer pH 7.4, 25° C., 24 h, HPLC-UV. How it is done: A known amount of the test compound was stirred in 0.1M phosphate buffer pH 7.4 at constant temperature (25° C.) for 24 h. The supernatant was then separated from un-dissolved material by double centrifugation, and subsequently analysed and quantified against a standard of known concentration in DMSO using generic HPLC-UV methodology coupled with mass spectral peak identification. Data are also included for a reference quinazolin-2,4-dione derivative disclosed in WO 03/053344.
As usually defined, the thermodynamic solubility is the concentration in solution at equilibrium with solid. Turning to `COCCn1c(=O)c2ccccc2n(Cc2nc3cc(CN)ccc3n2CCC(C)C)c1=O` [reference compound], the solubility (thermodynamic) at 24 h was determined as 36 µM (≈ 16.2 µg/mL).
`CC(C)CCn1c(Cn2c(=O)n(C)c(=O)c3ccccc32)nc2cc(CN)ccc21` [reference compound] had a thermodynamic solubility at 24 h of 16 µM (≈ 6.49 µg/mL).
The same measure, in the same setting: the value for `CC(C)CCn1c(CN2C(=O)N(C3CC3)Cc3ccccc32)nc2cc(CN)ccc21` [Example 7, 1-[[5-(Aminomethyl)-1-isopentyl-benzimidazol-2-yl]methyl]-3-cyclopropyl-4H-quinazolin-2-one] was 2300 µM (≈ 960 µg/mL).
Same read-out and setting: under `CC(C)CCn1c(CN2C(=O)N(C3CC3)Cc3ccccc32)nc2cc(C(=N)N)ccc21` [Example 35, 2-[(3-cyclopropyl-2-oxo-4H-quinazolin-1-yl)methyl]-1-isopentyl-benzimidazole-5-carboxamidine] stands 808 µM (≈ 348 µg/mL); under `CC(C)CCn1c(CN2C(=O)N(C)Cc3ccccc32)nc2cc(CN)ccc21` [Example 5, 1-[[5-(aminomethyl)-1-isopentyl-benzimidazol-2-yl]methyl]-3-methyl-4H-quinazolin-2-one], 2290 µM (≈ 897 µg/mL).
Still for that read-out and setting: under `CC(C)CCn1c(Cn2c(=O)n(C3CC3)c(=O)c3ccccc32)nc2cc(CN)ccc21` [reference compound] stands 70 µM (≈ 30.2 µg/mL).
In the case of `CC(C)CCn1c(CN2C(=O)N(C3CC3)C(C)c3ccccc32)nc2cc(CN)ccc21` (centres unmarked) [Example 20, 1-[[5-(aminomethyl)-1-isopentyl-benzimidazol-2-yl]methyl]-3-cyclopropyl-4-methyl-4H-quinazolin-2-one], the solubility (thermodynamic) at 24 h is 654 µM (≈ 282 µg/mL).
In turn, `COCCN1Cc2ccccc2N(Cc2nc3cc(CN)ccc3n2CCC(C)C)C1=O` [Example 13, 1-[[5-(aminomethyl)-1-isopentyl-benzimidazol-2-yl]methyl]-3-(2-methoxyethyl)-4H-quinazolin-2-one] gave a thermodynamic solubility at 24 h of 1560 µM (≈ 679 µg/mL). This solubility thermodynamic at 24 h is about 2.4-fold higher than that of the molecule before.
The same measure, in the same setting: the value for `NCc1ccc2c(c1)nc(Cn1c(=O)n(C3CC3)c(=O)c3ccccc31)n2CCCC(F)(F)F` [reference compound] was 90 µM (≈ 42.4 µg/mL).

The same data set, now with this note: pH 7.4.
Molecule “1-[[5-(aminomethyl)-1-isopentyl-benzimidazol-2-yl]methyl]-3-cyclopropyl-4,4-dimethyl-quinazolin-2-one [Example 21]” gave a solubility (thermodynamic) at 24 h of 1050 µM.
